Legend:
Format in all cases: in vivo
barnyard grass = assay: Herbicidal activity test against upland field weeds (foliar treatment test); set-up: key to Foliar treatment herbicidal activity, barnyard grass: 0 (no control); 100 (complete control); conditions: 50 g ai/ha, scale 0-100; for pest or weed control at 50 g/ha: Echinochloa crus-galli
Experimental: (§1) Experimental Example 1: Herbicidal Activity Test Against Upland Field Weeds (Foliar Treatment Test) Foliar treatment was performed as follows: After filling a square plastic pot having a surface area of 350 cm^2 with horticultural soil, seeds (10˜15 grains) or rootstocks (2 pieces) of 5 kinds of grassy weeds of sorghum, barnyard grass, quack grass, crabgrass, fall panicum, and 5 kinds of broadleaf weeds of black nightshade, indian jointvetch, velvetleaf, cocklebur, bindweed, which had been stored in a low temperature (6° C.), were sown. After growing for a certain period in greenhouse conditions (average temperature 30±5° C., light/dark=14/10 hours), test compound solutions were made by diluting with a preparation solution (including 50% acetone, 0.1% Tween-20) so that the final treatment amount of the test compounds was 50 or 75 g a.i./ha. The prepared test compound solution was used for treating foliage by hand-spraying 14 mL per pot in a fume hood. After the treatment, it was managed under the same greenhouse conditions as above, and after 14 days (after 21 days if necessary), the external symptoms and efficacy were investigated according to the scale of 0 (no control) to 100 (complete control). The results of Table 7 were obtained by evaluating weed control value to the untreated control by conducting visual assessment.

quack grass = assay: as above; set-up: key to Foliar treatment herbicidal activity, quack grass: 0 (no control); 100 (complete control); conditions: 50 g ai/ha, scale 0-100
Experimental: as §1

wheat = assay: Phytotoxicity test for upland field crops (foliar treatment test); set-up: key: 0 (no harm); 9 (complete withered)
Experimental: (§2) Experimental Example 3: Phytotoxicity Test for Upland Field Crops (Foliar Treatment Test)
(§3) Foliar treatment was performed for grown crops and weeds in a square plastic pot having a surface area of 50 cm^2 filled with horticultural soil. As a fertilizer per pot, 0.5 g of horticultural mixed fertilizer (N:P:K=17:21:17) was treated by mixing in the upper soil. Five kinds of crops such as rice, wheat, corn, soybean, and cotton were sown in each pot, and after growing for a certain period in greenhouse conditions (average temperature 30±5° C., light/dark=14/10 hours), test compound solutions were made by diluting with the diluent (33% acetone, 0.1% Tween-20) so that the final treatment amount of the test compounds was 19˜300 g a.i./ha. The prepared test compound solutions were treated using a spray booth (SB6-016) at a treatment amount of 100 ml per 1 m^2 of treatment area. The treated plants were managed under the same greenhouse conditions as above, and external symptoms and phytotoxicity were investigated 7 and 14 days after treatment (after 21 days if necessary). In the evaluation of the phytotoxicity for the crop, the grade of 0 (no harm) to 9 (complete withered) was used. The results of Table 9 were obtained by evaluating crop phytotoxicity value to the untreated control.

corn = assay: as above; set-up: key: 0 (no harm); 9 (complete withered)
Experimental: as §2, §3

fall panicum = assay: Herbicidal activity test against upland field weeds (foliar treatment test); set-up: key to Foliar treatment herbicidal activity, Fall panicum: 0 (no control); 100 (complete control); conditions: 50 g ai/ha, scale 0-100; for pest or weed control at 50 g/ha: Panicum dichotomiflorum
Experimental: as §1

crabgrass = assay: as above; set-up: key to Foliar treatment herbicidal activity, Crabgrass: 0 (no control); 100 (complete control); conditions: 50 g ai/ha, scale 0-100; for pest or weed control at 50 g/ha: Digitaria sanguinalis
Experimental: as §1

velvetleaf = assay: as above; set-up: key to Foliar treatment herbicidal activity, velvet leaf: 0 (no control); 100 (complete control); conditions: 50 g ai/ha; for Foliar treatment herbicidal activity, velvet leaf: scale 0-100; for pest or weed control at 50 g/ha: Abutilon theophrasti, scale 0-100, read-out: Foliar treatment herbicidal activity, velvet leaf
Experimental: as §1

sorghum = assay: as above; set-up: key to Foliar treatment herbicidal activity, Sorghum: 0 (no control); 100 (complete control); conditions: 50 g ai/ha, scale 0-100; for plant injury at 50 g/ha: Sorghum
Experimental: as §1

cocklebur = assay: as above; set-up: key to Foliar treatment herbicidal activity, Cocklebur: 0 (no control); 100 (complete control); conditions: 50 g ai/ha, scale 0-100; for pest or weed control at 50 g/ha: Xanthium strumarium
Experimental: as §1

black nightshade = assay: as above; set-up: key to Foliar treatment herbicidal activity, black nightshade: 0 (no control); 100 (complete control); conditions: 50 g ai/ha, scale 0-100; for pest or weed control at 50 g/ha: Solanum nigrum
Experimental: as §1

indian jointvetch = assay: as above; set-up: key to Foliar treatment herbicidal activity, Indian jointvetch: 0 (no control); 100 (complete control); conditions: 50 g ai/ha, scale 0-100
Experimental: as §1

bindweed = assay: as above; set-up: key to Foliar treatment herbicidal activity, Bindweed: 0 (no control); 100 (complete control); conditions: 50 g ai/ha, scale 0-100
Experimental: as §1

[1] = 50 g ai/ha, Wheat (7 days after treatment)
[2] = 50 g ai/ha, Wheat (14 days after treatment)
[3] = 100 g ai/ha, Wheat (7 days after treatment)
[4] = 100 g ai/ha, Wheat (14 days after treatment)
[5] = 50 g ai/ha, Corn (7 days after treatment)
[6] = 50 g ai/ha, Corn (14 days after treatment)
[7] = 100 g ai/ha, Corn (7 days after treatment)
[8] = 100 g ai/ha, Corn (14 days after treatment)

Row | Compound | Foliar treatment herbicidal activity, barnyard grass (barnyard grass) | Foliar treatment herbicidal activity, quack grass (quack grass) | Foliar treatment phytotoxicity, Wheat (wheat; [1]) | Foliar treatment phytotoxicity, Wheat (wheat; [2]) | Foliar treatment phytotoxicity, Wheat (wheat; [3]) | Foliar treatment phytotoxicity, Wheat (wheat; [4]) | Foliar treatment phytotoxicity, Corn (corn; [5]) | Foliar treatment phytotoxicity, Corn (corn; [6]) | Foliar treatment phytotoxicity, Corn (corn; [7]) | Foliar treatment phytotoxicity, Corn (corn; [8]) | Foliar treatment herbicidal activity, Fall panicum (fall panicum) | Foliar treatment herbicidal activity, Crabgrass (crabgrass) | Foliar treatment herbicidal activity, velvet leaf (velvetleaf) | Foliar treatment herbicidal activity, Sorghum (sorghum) | Foliar treatment herbicidal activity, black nightshade (black nightshade) | pest or weed control at 50 g/ha (velvetleaf) [%] | pest or weed control at 50 g/ha (cocklebur) [%] | pest or weed control at 50 g/ha (indian jointvetch) [%] | pest or weed control at 50 g/ha (bindweed) [%] | pest or weed control at 50 g/ha (black nightshade) [%] | other results
1 | C#CCn1nnnc1NC(=O)c1ccc(C(F)(F)F)nc1COCc1nc(C(F)(F)F)n(C)n1 [Compound No. 2-122] | 50 | 30 | 0 | 0 | 0 | 0 | 0 | 0 | 0 | 0 | 40 | 20 | 50 | 0 | 95 |  |  |  |  |  | Foliar treatment herbicidal activity, Cocklebur (cocklebur): 80; Foliar treatment herbicidal activity, Indian jointvetch (indian jointvetch): 70; Foliar treatment herbicidal activity, Bindweed (bindweed): 70
2 | CCCn1nnnc1NC(=O)c1ccc(C(F)(F)F)nc1COCc1nc(C(F)(F)F)n(C)n1 [Compound No. 2-120, 2-(((1-methyl-5-(trifluoromethyl)-1H-1,2,4-triazol-3-yl)methoxy)methyl)-N-(1-propyl-1H-tetrazol-5-yl)-6-(trifluoromethyl)nicotinamide] |  |  | 0 | 0 | 0 | 0 | 0 | 0 | 0 | 0 |  |  |  |  | 100 | 80 | 90 | 60 | 50 |  | pest or weed control at 50 g/ha (barnyard grass): 80%; pest or weed control at 50 g/ha (quack grass): 10%; pest or weed control at 50 g/ha (fall panicum): 90%; pest or weed control at 50 g/ha (crabgrass): 95%; plant injury at 50 g/ha (sorghum): 10%
3 | C=Cc1nc(COCc2nc(C(F)(F)F)ccc2C(=O)Nc2nnnn2C)nn1C [Compound No. 2-127, N-(1-methyl-1H-tetrazol-5-yl)-2-(((1-methyl-5-vinyl-1H-1,2,4-triazol-3-yl)methoxy)methyl)-6-(trifluoromethyl)nicotinamide] |  | 0 | 0 | 0 | 0 | 0 | 0 | 0 | 0 | 0 |  |  |  |  |  | 30 | 60 | 20 | 50 | 80 | pest or weed control at 50 g/ha (barnyard grass): 60%; pest or weed control at 50 g/ha (fall panicum): 40%; pest or weed control at 50 g/ha (crabgrass): 60%; plant injury at 50 g/ha (sorghum): 30%
4 | Cn1nnnc1COc1nc(Cl)ccc1C(=O)Nc1nnnn1C [Compound No. 1-20, 6-chloro-N-(1-methyl-1H-tetrazol-5-yl)-2-((1-methyl-1H-tetrazol-5-yl)methoxy)nicotinamide] | 0 | 0 |  |  |  |  |  |  |  |  | 0 | 0 | 0 | 0 |  |  | 20 |  |  | 50 | Foliar treatment herbicidal activity, Indian jointvetch (indian jointvetch): 0; Foliar treatment herbicidal activity, Bindweed (bindweed): 0
5 | Cn1nnnc1NC(=O)c1ccc(C(F)(F)F)nc1COCc1nc(OCC(F)(F)F)n(C)n1 [Compound No. 2-130, N-(1-methyl-1H-tetrazol-5-yl)-2-(((1-methyl-5-(2,2,2-trifluoroethoxy)-1H-1,2,4-triazol-3-yl)methoxy)methyl)-6-(trifluoromethyl)nicotinamide] |  | 0 |  |  |  |  |  |  |  |  |  |  |  |  |  | 50 | 60 | 60 | 70 | 98 | pest or weed control at 50 g/ha (barnyard grass): 95%; pest or weed control at 50 g/ha (fall panicum): 70%; pest or weed control at 50 g/ha (crabgrass): 90%; plant injury at 50 g/ha (sorghum): 30%
6 | Cn1nnnc1COc1nc(C(F)(F)F)ccc1C(=O)Nc1nnnn1C(F)F [Compound No. 1-4, N-(1-(difluoromethyl)-1H-tetrazol-5-yl)-2-((1-methyl-1H-tetrazol-5-yl)methoxy)-6-(trifluoromethyl)nicotinamide] | 0 | 0 |  |  |  |  |  |  |  |  | 0 | 0 |  | 0 |  | 20 | 60 | 20 | 20 | 80 | 
7 | Cn1nnc(CNc2nc(C(F)(F)F)ccc2C(=O)Nc2nnnn2C)n1 [Compound No. 2-32, N-(1-methyl-1H-tetrazol-5-yl)-2-(((2-methyl-2H-tetrazol-5-yl)methyl)amino)-6-(trifluoromethyl)nicotinamide] | 0 | 0 |  |  |  |  |  |  |  |  | 0 | 0 | 0 | 0 |  |  |  |  |  | 40 | Foliar treatment herbicidal activity, Cocklebur (cocklebur): 0; Foliar treatment herbicidal activity, Indian jointvetch (indian jointvetch): 0; Foliar treatment herbicidal activity, Bindweed (bindweed): 0
8 | CCN(Cc1nnn(C)n1)Cc1nc(C(F)(F)F)ccc1C(=O)Nc1nnnn1C [Compound No. 2-94, 2-((ethyl((2-methyl-2H-tetrazol-5-yl)methyl)amino)methyl)-N-(1-methyl-1H-tetrazol-5-yl)-6-(trifluoromethyl)nicotinamide] | 0 | 0 |  |  |  |  |  |  |  |  | 0 | 0 |  | 0 | 100 | 60 | 60 | 60 | 30 |  | 

— patent US12495798B2, “Nicotinamide compound and herbicidal composition comprising compound” (KOREA RESEARCH INSTITUTE OF CHEMICAL TECHNOLOGY, priority 2019, dated 2025)
